Data reported in patent publication US6569847B1, “Substituted azetidin-2-ones as cysteine protease inhibitors” (NAEJA Pharmaceuticals Inc., priority 1999, dated 2003).

Assays:
Cathepsin B = Cathepsin B (Homo sapiens, UniProt P07858); assay: Assay Procedure for Cathepsin B (fluorogenic substrate N-CBZ-Phe-Arg-AMC); type: biochemical; conditions: r Cathepsin B, pH 5.1, 10 min preincubation; read-out: CatB IC50
Description: Assay Procedure for Cathepsin B
To 170 μl of enzyme-buffer mixture (r Cathepsin B diluted to give approx. 30 F units/min, buffer: 56 mM Na acetate, 1.124 mM EDTA, 10 mM DTT, pH 5.1), 10 μl of inhibitor (dissolved in 100% DMSO ) was added.
After 10 min of incubation at mom temperature 20 μl of 5 mM substrate (N-CBZ-Phe-Arg-AMC, dissolved in DMSO ) was added to initiate reaction. Reading is followed for 10 min at the Fluoroscan reader (excitation at 380 nm, emission at 460 nm).
(§1) A plot of percentage of inhibition vs inhibitor concentration is obtained, and the IC50 is determined using a linear regression calculation (concentration of inhibitor which will give 50% inhibition).

Cathepsin K = molecular target: T1, Cathepsin K (Homo sapiens, UniProt P43235); assay: Assay Procedure for Cathepsin K (fluorogenic substrate N-CBZ-Phe-Arg-AMC); type: biochemical; conditions: r Cathepsin K, pH 5.5, 10 min preincubation; read-out: CatK IC50
T1 sequence (P43235 115-329): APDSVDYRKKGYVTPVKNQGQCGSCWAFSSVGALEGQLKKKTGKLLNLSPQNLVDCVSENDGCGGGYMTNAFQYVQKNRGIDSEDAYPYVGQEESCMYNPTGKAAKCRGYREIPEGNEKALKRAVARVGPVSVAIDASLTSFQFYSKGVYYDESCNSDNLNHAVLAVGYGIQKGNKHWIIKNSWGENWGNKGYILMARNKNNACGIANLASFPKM
Description: Assay Procedure for Cathepsin K
To 170 μl of enzyme-buffer mixture (r Cathepsin K diluted to give approx. 30 F units/min. Buffer: 100 mM sodium acetate, 5 mM EDTA, 20 mM L-Cysteine, 0.01% Brij , pH 5.5), 10 μl of inhibitor (dissolved in 100% DMSO) was added.
After 10 min of incubation at room temperature 20 μl of 2.7 mM substrate (N-CBZ-Phe-Arg-AMC, dissolved in DMSO) was added to initiate reaction. Reading is followed for 10 min at the Fluoroscan II plate reader (excitation at 380 nm, emission at 460 nm).
as §1

Cathepsin L = Cathepsin L (Homo sapiens, UniProt P07711); assay: Assay Procedure for Cathepsin L (fluorogenic substrate N-CBZ-Phe-Arg-AMC); type: biochemical; conditions: r Cathepsin L, pH 5.0, 10 min preincubation; read-out: CatL IC50
Description: Assay Procedure for Cathepsin L
To 170 μl of an enzyme-buffer mixture (enzyme: r Cathepsin L, diluted to give 25 F units/min, buffer: 58.8 mM Na citrate, 1.18 mM EDTA, 235 mM sodium chloride, 10 mM DTT, pH 5.0), 10 μl of an inhibitor (dissolved in 100% DMSO ) was added.
After 10 min of incubation at room temperature 20 μl of 1 mM substrate (N-CBZ-Phe-Arg-AMC) dissolved in DMSO was added to initiate the reaction. Reading was for 10 min at the Fluoroscan reader (excitation at 380 nm, emission at 460 nm).
as §1

Cathepsin S = Cathepsin S (Homo sapiens, UniProt P25774); assay: Assay Procedure for Cathepsin S (fluorogenic substrate CBZ-Val-Val-Arg-AMC); type: biochemical; conditions: r Cathepsin S, pH 6.5, 10 min preincubation; read-out: CatS IC50
Description: Assay Procedure for Cathepsin S
To 170 μl of enzyme-buffer mixture (r Cathepsin S diluted to give approx. 30 F unis/min, buffer: 100 mM sodium phosphate, 1 mM EDTA, 5 mM DTT ,0.01% Brij, pH 6.5.), 10 μl of inhibitor (dissolved in 100% DMSO) was added.
After 10 min of incubation at room temperature 20 μl of 1.2 mM substrate (CBZ-Val-Val-Arg-AMC, dissolved in DMSO) was added to initiate reaction. Reading is followed for 10 min at the Fluoroscan II plate reader (excitation at 380 nm, emission at 460 nm).
as §1

Sequence of Cathepsin S (P25774 115-331, species assumed): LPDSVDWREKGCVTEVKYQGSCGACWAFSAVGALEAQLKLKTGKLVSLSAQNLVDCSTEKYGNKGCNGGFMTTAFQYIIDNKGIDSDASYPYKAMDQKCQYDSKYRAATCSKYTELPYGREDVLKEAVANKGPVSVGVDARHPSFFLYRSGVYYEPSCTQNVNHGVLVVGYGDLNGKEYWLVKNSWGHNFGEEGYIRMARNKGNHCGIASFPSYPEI
Sequence of Cathepsin L (P07711 114-333, species assumed): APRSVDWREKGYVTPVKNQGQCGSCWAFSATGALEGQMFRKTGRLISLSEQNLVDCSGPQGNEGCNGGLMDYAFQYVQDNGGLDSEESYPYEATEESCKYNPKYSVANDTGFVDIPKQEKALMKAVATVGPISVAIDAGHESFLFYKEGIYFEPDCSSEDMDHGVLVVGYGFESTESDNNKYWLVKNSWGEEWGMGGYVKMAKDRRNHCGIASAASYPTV

SMILES | melting point [°C] | IC50 (Cathepsin B) [µM] | IC50 (Cathepsin K) [µM] | IC50 (Cathepsin L) [nM] | IC50 (Cathepsin S) [nM]
CC(=O)O[C@@H]1NC(=O)[C@@]1(C)NC(=O)[C@H](Cc1ccccc1)NC(=O)CCc1ccccc1 [Example 4, (3S,4S)-3-[2S-2-(3-phenylpropionyl)-amino-2-benzyl]-acetamido-3-methyl-4-acetoxy azetidine-2-one] | 163 to 164 | 10 | 1.14 | 1910 | 98
C[C@@]1(NC(=O)[C@H](CC2CCCCC2)NC(=O)CCCCCNC(=NC(=O)OCc2ccccc2)NC(=O)OCc2ccccc2)C(=O)N[C@H]1Oc1ccccc1 [Example 7, (3S,4S)-3-[2S-2-(6-N, N-dibenzyloxycarbonylguanidinohexanoyl)-amino-2-cyclohexylmethyl]-acetamido-3-methyl-4-phenoxy-azetidine-2-one] |  | 26.2 | 32.5 | 32500 | 20
CC(C)(C)OC(=O)N[C@@H](Cc1cccnc1)C(=O)N[C@]1(C)C(=O)N[C@H]1Oc1ccccc1 [Example 12] | 109 to 110 | 11.3 | 7.74 | 2270 | 1800
CC(C)(C)OC(=O)N[C@@H](Cc1cccnc1)C(=O)N[C@]1(C)C(=O)N[C@@H]1Oc1ccccc1 [Example 14] |  | 0.36 | 1.34 | 450 | 50
C[C@@]1(NC(=O)[C@H](Cc2ccccc2)NC(=O)CCc2ccccc2)C(=O)N[C@H]1Oc1cccc(C(=O)OC(c2ccccc2)c2ccccc2)c1 [Example 18, (3S,4S)-3-[2S-2-(3-phenylpropionyl)-amino-2-benzyl]-acetamido-3-methyl-4-(3-diphenylmethoxycarbonyl)-phenoxy azetidine-2-one] |  | > 36.6 | 7.3 | 7330 | 690
